Measurements reported in US7300793B2, “Method for preventing the adhesion of particles” (Evotec Technologies GmbH, priority 2001, dated 2007).

How the values were obtained:
U937-cells = assay: Cell adherence to polystyrene culture dishes in the presence of various substances, with trypan blue vitality check (U937); settings: for U937 Adherence: 30 minutes at 37° C., polystyrene 24-well plate
Procedure: (§1) 50 μl of the cell suspension described above were added.
(§2) The samples were incubated for 30 minutes at 37° C. The supernatant with non-adhered cells was removed and replaced by buffer. The adherence was qualitatively evaluated (refer to table 3). The cells in both supernatant and the wells were stained with trypanblue solution (0.2%, SIGMA Aldrich GmbH, Steinheim) in order to examine the vitality of the cells.

Jurkat-cells = assay: Cell adherence to polystyrene culture dishes in the presence of various substances, with trypan blue vitality check (Jurkat)
Procedure: as §1, §2

Row | Substance | U937 Vitality (U937-cells) | Jurkat Vitality (Jurkat-cells) | U937 Adherence (U937-cells; 0.1% in PBS) | U937 Adherence (U937-cells; 0.5% in PBS) | Jurkat Adherence (Jurkat-cells; 0.1% in PBS, 30 minutes at 37° C., polystyrene 24-well plate)
1 | polyvinyl alcohol [PVA 30,000–70,000] | 98% | 97% | – | – | –
2 | polyvinyl pyrrolidone 25 [PVP 25] | 100% | 100% | – | – | –
3 | Bovine serum albumin [BSA] | – | – | 999 | 99 | 99
4 | polyethylene glycol 5,000 [PEG 5,000] | 100% | 100% | – | – | –
5 | polyvinyl pyrrolidone 15 [PVP 15] | 100% | 100% | – | – | –
